The text below walks through data of patent publication US5412095A, “Terazosin monohydrochloride and processes and intermediate for its production” (Abbott Laboratories, priority 1994, dated 1995).

Structures can show the parent of a compound that is named as a salt. Where two headings read alike, the source gives them in different places.

Series [1] can be described thus: Solubility/dissolution of forms of terazosin monohydrochloride in distilled water (shaken, 0.45 µm filtered, UV at 254 nm). In kind it is physicochemical. The settings on record: for Solubility of Various Forms of Terazosin Monohydrochloride / solubility at 0.5 min / solubility at 1 min / solubility at 2 min / solubility at 4 min: distilled water, 2 g in 5 mL; for dissolution in water (in words): qualitative; for solubility at 0.5 min / solubility at 1 min / solubility at 2 min / solubility at 4 min: read-out: Solubility of Various Forms of Terazosin Monohydrochloride. As for the experimental part: The data in Table 1 were collected, for each data point, by weighing 2 g samples of terazosin monohydrochloride dihydrate and each of Forms I, II and II of the non-solvated monohydrochloride separately into 50 mL centrifuge tubes. Five mL of distilled water were added to each tube and the tubes shaken for the times indicated and then rapidly filtered through a 0.45 μu nylon membrane filter. The resulting flitrates were serially diluted with water 2 to […], 5 to 50, 5 to 50 and 5 to 100 mL and the ultraviolet absorption maximum at 254 nm measured. The concentrations of the dissolved terazosin were then calculated from the absorption data using dam from a series of standard concentrations.

Series [2] is described as follows: Acidic cleavage of terazosin in aqueous acid. It counts as physicochemical. The settings on record: aqueous medium, cleaves into 4-amino-6,7-dimethoxy-2-piperazinylquinazoline and 2-furoic acid. As for the experimental part: In the particular case of terazosin, when the parent compound or its hydrochloride salt is in contact for extended periods with aqueous acid, it undergoes an undesirable side reaction which cleaves the compound into its constituent parts: [drawing 2]
Moreover, if the hydrochloride salt is prepared by lyophilization of the reaction mixture of terazosin free base and hydrochloric acid, unless care is taken to remove any excess acid present in the isolated salt, the solid may also contain small amounts of acid which causes degradative cleavage over time.

For series [3] the following is noted: free base form; cited from earlier work.

As to `COc1cc2nc(N3CCN(C(=O)C4CCCO4)CC3)nc(N)c2cc1OC` (stereo not shown) [Form III, 1-(4-amino-6,7-dimethoxy-2-quinazolinyl)-4-(tetrahydro-2-furoyl)piperazinemonohydrochloride], the “Solubility of Various Forms of Terazosin Monohydrochloride” value in series [1] (0.5 minutes) stood at 235 mg/mL; in series [1] (1 minute, 1 min) it was 237 mg/mL; in series [1] (2 minutes), 269 mg/mL; in series [1] (4 minutes), 261 mg/mL. The “solubility rapidly achieved relative to the dihydrate limit (about 30 mg/mL)” value in series [1] (water, multiple of dihydrate solubility) is listed as “about ten times”. The “dissolution in water (in words)” value in series [1] (water) is recorded as “rapidly dissolves in water”; in series [1] (water, listed as terazosin monohydrochloride Form III) it was “dissolves in water much more rapidly than the dihydrate form”.

As to `COc1cc2nc(N3CCN(C(=O)C4CCCO4)CC3)nc(N)c2cc1OC` (stereo not shown) [Form I, 1-(4-amino-6,7-dimethoxy-2-quinazolinyl)-4-(tetrahydro-2-furoyl)piperazinemonohydrochloride], the solubility at 0.5 min in series [1] (water, 0.5 minutes) is 273 mg/mL. Further, the solubility at 1 min in series [1] (water, 1 minute) came out at 283 mg/mL. Moreover, in series [1] (water, 2 minutes), the solubility at 2 min came out at 289 mg/mL. Moreover, in series [1] (water, 4 minutes), the solubility at 4 min amounted to 276 mg/mL.

In the case of `COc1cc2nc(N3CCN(C(=O)C4CCCO4)CC3)nc(N)c2cc1OC.Cl.O.O` (stereo not shown) [Dihydrate, 1-(4-Amino-6,7-dimethoxy-2-quinazolinyl)-4-(tetrahydro-2-furoyl)piperazine monohydrochloride dihydrate], the solubility at 0.5 min in series [1] (0.5 minutes) was 29 mg/mL. In addition, the solubility at 1 min in series [1] (1 minute) stood at 30 mg/mL. In addition, the solubility at 2 min in series [1] (2 minutes) came to 27 mg/mL. Further, the solubility at 4 min in series [1] (4 minutes) was 26 mg/mL. In series [1] (water, rapidly reached, read-out: limit of solubility), the solubility is roughly 30 mg/mL.

As for `COc1cc2nc(N3CCN(C(=O)C4CCCO4)CC3)nc(N)c2cc1OC` (stereo not shown) [terazosin, 1-(4-amino-6,7-dimethoxy-2-quinazolinyl)-4-(tetrahydro-2furoyl)piperazine], the “acidic cleavage (stability)” value in series [2] is reported as “occurs rapidly in aqueous medium”. Moreover, in series [3], the “solubility for oral administration (in words)” value is “does not possess the requisite solubility for convenient oral administration”.

`COc1cc2nc(N3CCN(C(=O)C4CCCO4)CC3)nc(N)c2cc1OC` (stereo not shown) [Form II, 1-(4-amino-6,7-dimethoxy-2-quinazolinyl)-4-(tetrahydro-2-furoyl)piperazinemonohydrochloride]: the “Solubility of Various Forms of Terazosin Monohydrochloride” value in series [1] (0.5 minutes) is 280 mg/mL; in series [1] (1 minute, 1 min) it was 253 mg/mL; in series [1] (2 minutes), 311 mg/mL; in series [1] (4 minutes), 323 mg/mL.

The solubility is the concentration that dissolves in the medium under given conditions.
